This is an account of results in patent US8729227B2, “Compounds for control of appetite” (University of Cincinnati, priority 2006, dated 2014).

Data set [1] relates to C57BL/6 male mice. The data set is described as follows: Preliminary dose study of B-48 on food intake of fasted mice (Example III). Conditions: ip, overnight (18 h) fasted mice, food intake monitored over 1-24 h; preliminary studies, results not shown. The format is in vivo. How it is done: To further study the feeding patterns of animals treated with B-48, experiments were performed in seven to eight week old C57BL/6 male mice (Harlan Laboratories, Indianapolis, Ind.) after acclimatization of mice for one week. More specifically, in preliminary studies, overnight (18 h) fasted animals were injected (ip) with 0.1 ml of saline or saline (0.1 ml) containing various concentrations of B-48 (0.025, 0.050, 0.100 or 0.150 μmol/mice) (n=8-10 per group). The mice were provided with a known quantity of chow 10 min later. The food intake was monitored over 1-24 h.

In data set [2] the test system is C57BL/6 male mice. The data set is described as follows: Food intake of fasted mice after ip B-48 or B-74 alone or together (Example IV, FIGS. 2 and 3). The format is in vivo. The conditions noted are these: for Percentage of Inhibition of Food Intake Compared to Saline: B-48 vs. (B-48 + B-74), fasted mice, 0.050 μmol each compound. Here is the method:
To further compare the inhibitory effects of injecting (ip) 0.050 μmol of B-48 or B-74 alone or together (B-48+B-74) on the food intake by fasted mice, additional experiments were conducted.
Accordingly, to study the feeding patterns of animals treated with B-48 or B-74 alone or together (B-48+B-74), seven to eight week old C57BL/6 male mice (Harlan Laboratories, Indianapolis, Ind.) were individually housed in cages in a temperature controlled room (25° C.) under 12-hour light/dark cycles. The mice had free access to water and standard chow. After acclimatizing for one week, mice were fasted 18 hours before the experiment. The fasted animals were injected (ip) with 0.1 ml of saline or saline (0.1 ml) containing B-48 (0.050 μmol/mice) or B-74 (0.050 μmol/mice) alone or together, B-48+B-74 (0.100 μmol/mice, i.e. 0.050 μmol/mice per each compound), (n=8-10 per group). The mice were provided with a blown quantity of chow 10 minutes later. The food intake was monitored over 1-24 h. Statistical significance was determined by AN OVA, with individual means being compared post-hoc by Tukey's corrected t-test.

The conditions of data set [3]: native PP; cited from earlier work.
Data set [4] concerns C57BL/6 male mice. As to the kind of experiment: Feeding pattern of fasted mice after ip injection of hPP or B-74 (Example II, FIG. 1). The data set is classed as in vivo. The conditions noted are these: 18 h fasted mice, B-74 100 nmol/mice, versus saline control. Here is the method:
To study the feeding patterns of animals treated with B-74, seven to eight week old C57BL/6 male mice (Harlan Laboratories, Indianapolis, Ind.) were individually housed in cages in a temperature controlled room (25° C.) under 12-hour light/dark cycles. Mice had free access to water and standard chow and were acclimatized to daily ip saline injections. […] Food was provided ten (10) minutes later, and the 2 and 4 hour food intake was monitored. Statistical significance was determined by ANOVA, with individual means being compared post-hoc by Tukey's corrected t-test.

For the substance “N-α-Ac[Nle^24,28,Trp^30,Nva^31,ψ^35/36]PYY(22-36)-NH2 (ASXRHYXNWXTRQRY; N-acetyl, C-amide, Nle, Nva, reduced CH2-NH bond; synthesized by man) [B-48, PYY(22-36) analog, Y2 receptor agonist; ψ is —CH2-NH—]”, the “minimum dose required to exhibit significant inhibitory effects on food intake” value in the data set on C57BL/6 male mice [1] worked out at 0.050 μmol/mice. Also, the “Percentage of Inhibition of Food Intake Compared to Saline” value in the data set with C57BL/6 male mice [2] (2 hours after injection) is 39%; in the data set on C57BL/6 male mice [2] (4 hours after injection) it was 30%; in the data set on C57BL/6 male mice [2] (8 hours after injection) it was 16%; in the data set with C57BL/6 male mice [2] (24 hours after injection), 7%. Besides, the “inhibition of food intake over the 24 h time period” value in the data set with C57BL/6 male mice [2] (18 h fasted mice, 0.050 μmol/mice per each compound, alone or together) is reported as “inhibited food intake to a greater extent than the control”.
Consider “APLEPVYPGDNATPEQMAQYAADLRRYINMLTRPRY [PP]”, for which the half-life result in data set [3] was “about six”. Further, in the data set on C57BL/6 male mice [4] (2 h), the “2 h food intake” value is “inhibited”. The “4 h food intake” value with C57BL/6 male mice [4] (4 h) is on record as “inhibited”.
